# Columns and labels:
# Format in all cases: functional
# SK-MEL-2 = test: Growth inhibition of human SK-MEL-2 cells assessed as cell growth at 10 uM incubated for 48 hrs by sulforhodamine B assay; details: SK-MEL-2, 48 h, read-out: Activity
# MDA-MB-435 = test: Growth inhibition of human MDA-MB-435 cells assessed as cell growth at 10 uM incubated for 48 hrs by sulforhodamine B assay; details: MDA-MB-435, 48 h, read-out: Activity
# M14 = test: Growth inhibition of human M14 cells assessed as cell growth at 10 uM incubated for 48 hrs by sulforhodamine B assay; details: M14, 48 h, read-out: Activity
# Malme-3M = test: Growth inhibition of human MALME-3M cells assessed as cell growth at 10 uM incubated for 48 hrs by sulforhodamine B assay; details: read-out: Activity
# [1] = Growth inhibition of human LOXIMVI cells assessed as cell growth at 10 uM incubated for 48 hrs by sulforhodamine B assay; details: LOX IMVI, read-out: Activity
# U-251 = test: Growth inhibition of human U251 cells assessed as cell growth at 10 uM incubated for 48 hrs by sulforhodamine B assay; details: U-251, 48 h, read-out: Activity
# SNB-75 = test: Growth inhibition of human SNB75 cells assessed as cell growth at 10 uM incubated for 48 hrs by sulforhodamine B assay; details: SNB-75, 48 h, read-out: Activity
# SNB-19 = test: Growth inhibition of human SNB19 cells assessed as cell growth at 10 uM incubated for 48 hrs by sulforhodamine B assay; details: SNB-19, 48 h, read-out: Activity
# [2] = Growth inhibition of human SF539 cells assessed as cell growth at 10 uM incubated for 48 hrs by sulforhodamine B assay; details: SF-539, 48 h, read-out: Activity
# [3] = Growth inhibition of human SF295 cells assessed as cell growth at 10 uM incubated for 48 hrs by sulforhodamine B assay; details: SF-295, 48 h, read-out: Activity
# SF-268 = test: Growth inhibition of human SF268 cells assessed as cell growth at 10 uM incubated for 48 hrs by sulforhodamine B assay; details: SF-268, 48 h, read-out: Activity
# SW-620 = test: Growth inhibition of human SW620 cells assessed as cell growth at 10 uM incubated for 48 hrs by sulforhodamine B assay; details: SW-620, 48 h, read-out: Activity
# HT-29 = test: Growth inhibition of human HT-29 cells assessed as cell growth at 10 uM incubated for 48 hrs by sulforhodamine B assay; details: HT-29, 48 h, read-out: Activity
# HCT-116 = test: Growth inhibition of human HCT116 cells assessed as cell growth at 10 uM incubated for 48 hrs by sulforhodamine B assay; details: HCT-116, 48 h, read-out: Activity
# [4] = Growth inhibition of human COLO205 cells assessed as cell growth at 10 uM incubated for 48 hrs by sulforhodamine B assay; details: COLO 205, 48 h, read-out: Activity
# NCI-H522 = test: Growth inhibition of human NCI-H522 cells assessed as cell growth at 10 uM incubated for 48 hrs by sulforhodamine B assay; details: NCI-H522, 48 h, read-out: Activity
# NCI-H23 = test: Growth inhibition of human NCI-H23 cells assessed as cell growth at 10 uM incubated for 48 hrs by sulforhodamine B assay; details: NCI-H23, 48 h, read-out: Activity
# [5] = Growth inhibition of human HOP92 cells assessed as cell growth at 10 uM incubated for 48 hrs by sulforhodamine B assay; details: HOP-92, 48 h, read-out: Activity
# A549 = test: Growth inhibition of human A549/ATCC cells assessed as cell growth at 10 uM incubated for 48 hrs by sulforhodamine B assay; details: A549, 48 h, read-out: Activity
# [6] = Growth inhibition of human MOLT4 cells assessed as cell growth at 10 uM incubated for 48 hrs by sulforhodamine B assay; details: MOLT-4, 48 h, read-out: Activity
# K562 = test: Growth inhibition of human K562 cells assessed as cell growth at 10 uM incubated for 48 hrs by sulforhodamine B assay; details: K562, 48 h, read-out: Activity
# HL-60(TB) = test: Growth inhibition of human HL-60(TB) cells assessed as cell growth at 10 uM incubated for 48 hrs by sulforhodamine B assay; details: HL-60, 48 h, read-out: Activity
# SK-MEL-5 = test: Growth inhibition of human SK-MEL-5 cells assessed as cell growth at 10 uM incubated for 48 hrs by sulforhodamine B assay; details: SK-MEL-5, 48 h, read-out: Activity
# UACC-257 = test: Growth inhibition of human UACC257 cells assessed as cell growth at 10 uM incubated for 48 hrs by sulforhodamine B assay; details: UACC-257, 48 h, read-out: Activity
# UACC-62 = test: Growth inhibition of human UACC62 cells assessed as cell growth at 10 uM incubated for 48 hrs by sulforhodamine B assay; details: UACC-62, 48 h, read-out: Activity
# IGROV-1 = test: Growth inhibition of human IGROV1 cells assessed as cell growth at 10 uM incubated for 48 hrs by sulforhodamine B assay; details: IGROV-1, 48 h, read-out: Activity
# OVCAR-4 = test: Growth inhibition of human OVCAR4 cells assessed as cell growth at 10 uM incubated for 48 hrs by sulforhodamine B assay; details: OVCAR-4, 48 h, read-out: Activity
# OVCAR-5 = test: Growth inhibition of human OVCAR5 cells assessed as cell growth at 10 uM incubated for 48 hrs by sulforhodamine B assay; details: OVCAR-5, 48 h, read-out: Activity
# [7] = Growth inhibition of human NCI-ADR-RES cells assessed as cell growth at 10 uM incubated for 48 hrs by sulforhodamine B assay; details: read-out: Activity
# CAKI-1 = test: Growth inhibition of human Caki1 cells assessed as cell growth at 10 uM incubated for 48 hrs by sulforhodamine B assay; details: CAKI-1, 48 h, read-out: Activity
# [8] = Growth inhibition of human RXF393 cells assessed as cell growth at 10 uM incubated for 48 hrs by sulforhodamine B assay; details: RXF 393, 48 h, read-out: Activity
# UO-31 = test: Growth inhibition of human UO31 cells assessed as cell growth at 10 uM incubated for 48 hrs by sulforhodamine B assay; details: UO-31, 48 h, read-out: Activity
# DU-145 = test: Growth inhibition of human DU145 cells assessed as cell growth at 10 uM incubated for 48 hrs by sulforhodamine B assay; details: DU-145, 48 h, read-out: Activity
# [9] = Growth inhibition of human Hs 578T cells assessed as cell growth at 10 uM incubated for 48 hrs by sulforhodamine B assay; details: read-out: Activity
# [10] = Growth inhibition of human BT549 cells assessed as cell growth at 10 uM incubated for 48 hrs by sulforhodamine B assay; details: BT-549, 48 h, read-out: Activity
# [11] = Growth inhibition of human NCI60 cells assessed as cell growth at 10 uM incubated for 48 hrs by sulforhodamine B assay; details: NCI60, 48 h, read-out: Activity
Structure (SMILES),growth at 10 µM (SK-MEL-2),growth at 10 µM (MDA-MB-435),growth at 10 µM (M14),growth at 10 µM (Malme-3M),growth at 10 µM [1],growth at 10 µM (U-251),growth at 10 µM (SNB-75),growth at 10 µM (SNB-19),growth at 10 µM [2],growth at 10 µM [3],growth at 10 µM (SF-268),growth at 10 µM (SW-620),growth at 10 µM (HT-29),growth at 10 µM (HCT-116),growth at 10 µM [4],growth at 10 µM (NCI-H522),growth at 10 µM (NCI-H23),growth at 10 µM [5],growth at 10 µM (A549),growth at 10 µM [6],also measured
O=C(O)c1c(Sc2ccc(Cl)cc2)c(O)nc2ccccc12,120%,102%,107%,107%,90.5%,99.6%,82.2%,97.2%,110%,99%,114%,96.9%,101%,104%,109%,81.6%,92.6%,73%,107%,97.2%,growth at 10 µM (K562): 112%; growth at 10 µM (HL-60(TB)): 106%; growth at 10 µM (SK-MEL-5): 98.1%; growth at 10 µM (UACC-257): 122%; growth at 10 µM (UACC-62): 102%; growth at 10 µM (IGROV-1): 104%; growth at 10 µM (OVCAR-4): 98.4%; growth at 10 µM (OVCAR-5): 112%; growth at 10 µM [7]: 97.8%; growth at 10 µM (CAKI-1): 76.3%; growth at 10 µM [8]: 114%; growth at 10 µM (UO-31): 68.9%; growth at 10 µM (DU-145): 115%; growth at 10 µM [9]: 88.3%; growth at 10 µM [10]: 124%; growth at 10 µM [11]: 102%
O=c1c2ccc(Cl)cc2sc2c(Cl)nc3ccccc3c12,95.5%,101%,106%,95.9%,90.5%,102%,77.9%,108%,89%,90.3%,110%,99.1%,99.7%,102%,112%,96.8%,85.1%,90.8%,105%,98%,growth at 10 µM (K562): 101%; growth at 10 µM (HL-60(TB)): 99.3%; growth at 10 µM (SK-MEL-5): 97.4%; growth at 10 µM (UACC-257): 104%; growth at 10 µM (UACC-62): 89.7%; growth at 10 µM (IGROV-1): 96.1%; growth at 10 µM (OVCAR-4): 87.9%; growth at 10 µM (OVCAR-5): 100%; growth at 10 µM [7]: 103%; growth at 10 µM (CAKI-1): 94.3%; growth at 10 µM [8]: 103%; growth at 10 µM (UO-31): 66.1%; growth at 10 µM (DU-145): 114%; growth at 10 µM [9]: 95.1%; growth at 10 µM [10]: 110%; growth at 10 µM [11]: 98.1%
